Reference: PubChem BioAssay AID248 (DTP/NCI, 2004)
Values joined by “and” are separate entries in the source; they are usually repeats but may differ in a detail not shown here. Equal entries are not always repeated. Inconclusive results and toxic doses are left out. Cut-off read from the data, not from the text of the source: active = T/C of 150% or more; inactive = T/C below 125%.

Tested on: L1210 leukemia ip in BDF1 mice, survival T/C
Test: NCI In Vivo Anticancer Drug Screen. Data for tumor model L1210 Leukemia (intraperitoneal) in B6D2F1 (BDF1) mice
Details: endpoint: mean survival time, higher = longer survival
Summary of the method: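 Ratio derived from survival: compound-dosed mice over vehicle-dosed mice, all bearing a transplantable tumor.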

[1] = dose: 100.0 mg/kg/injection, schedule: Q01DX009 (ip), vehicle: Klucel (hydroxypropylcellulose) (HPC)
[2] = dose: 200.0 mg/kg/injection, schedule: Q01DX009 (ip), vehicle: Klucel (hydroxypropylcellulose) (HPC)
[3] = dose: 100.0 mg/kg/injection, schedule: Q04DX003 (ip), vehicle: saline with Tween-80
[4] = dose: 200.0 mg/kg/injection, schedule: Q04DX003 (ip), vehicle: saline with Tween-80
[5] = dose: 400.0 mg/kg/injection, schedule: Q04DX003 (ip), vehicle: saline with Tween-80
[6] = dose: 100.0 mg/kg/injection, schedule: Q04DX002 (ip), vehicle: saline
[7] = dose: 200.0 mg/kg/injection, schedule: Q04DX002 (ip), vehicle: saline
[8] = dose: 400.0 mg/kg/injection, schedule: Q01DX009 (ip), vehicle: Klucel (hydroxypropylcellulose) (HPC)
[9] = dose: 100.0 mg/kg/injection, schedule: Q01DX001 (ip), vehicle: Klucel (hydroxypropylcellulose) (HPC)
[10] = dose: 200.0 mg/kg/injection, schedule: Q01DX001 (ip), vehicle: Klucel (hydroxypropylcellulose) (HPC)
[11] = dose: 400.0 mg/kg/injection, schedule: Q01DX001 (ip), vehicle: Klucel (hydroxypropylcellulose) (HPC)
[12] = dose: 100.0 mg/kg/injection, schedule: Q04DX003 (ip), vehicle: Klucel (hydroxypropylcellulose) (HPC)
[13] = dose: 200.0 mg/kg/injection, schedule: Q04DX003 (ip), vehicle: Klucel (hydroxypropylcellulose) (HPC)
[14] = dose: 400.0 mg/kg/injection, schedule: Q04DX003 (ip), vehicle: Klucel (hydroxypropylcellulose) (HPC)
[15] = dose: 50.0 mg/kg/injection, schedule: Q01DX001 (ip), vehicle: saline
[16] = dose: 100.0 mg/kg/injection, schedule: Q01DX001 (ip), vehicle: saline
[17] = dose: 200.0 mg/kg/injection, schedule: Q01DX001 (ip), vehicle: saline

Measured: T/C

CC(=O)O/C=C1\CC2C3CC=C4CC(OC(C)=O)CCC4(C)C3CCC2(C)C1=O (stereo unspecified)
inactive: dose: 200.0 mg/kg/injection, schedule: Q01DX001 (ip), vehicle: saline with Tween-80 90 % of control | dose: 400.0 mg/kg/injection, schedule: Q01DX001 (ip), vehicle: saline with Tween-80 90 % of control

Cc1ccc(C(=O)/C=C/c2ccc(Cl)c(Cl)c2)c(C)c1
inactive: dose: 100.0 mg/kg/injection, schedule: Q01DX009 (ip), vehicle: saline with Tween-80 92 % of control | dose: 100.0 mg/kg/injection, schedule: Q04DX002 (ip), vehicle: saline with Tween-80 98 % of control | dose: 200.0 mg/kg/injection, schedule: Q01DX009 (ip), vehicle: saline with Tween-80 95 % of control | dose: 200.0 mg/kg/injection, schedule: Q04DX002 (ip), vehicle: saline with Tween-80 91 % of control | dose: 400.0 mg/kg/injection, schedule: Q01DX009 (ip), vehicle: saline with Tween-80 109 % of control | dose: 400.0 mg/kg/injection, schedule: Q04DX002 (ip), vehicle: saline with Tween-80 91 % of control

CC(C)(C)CC(C)(C)NS(=O)(=O)CCCBr
inactive: dose: 25.0 mg/kg/injection, schedule: Q04DX003 (ip), vehicle: saline with Tween-80 95 % of control | dose: 50.0 mg/kg/injection, schedule: Q04DX003 (ip), vehicle: saline with Tween-80 111 % of control

CN=C(N)c1ccc(N=C(N)c2ccc(C(N)=Nc3ccc(C(N)=NC)cc3)c(Cl)c2)cc1
inactive: dose: 7.5 mg/kg/injection, schedule: Q01DX Z (oral), vehicle: saline 101 % of control | dose: 15.0 mg/kg/injection, schedule: Q01DX Z (oral), vehicle: saline 98 % of control | dose: 30.0 mg/kg/injection, schedule: Q01DX Z (oral), vehicle: saline 101 % of control | dose: 60.0 mg/kg/injection, schedule: Q01DX Z (oral), vehicle: saline 101 % of control

CCNc1ccccc1-c1nc2ccccc2[nH]1
inactive: dose: 50.0 mg/kg/injection, schedule: Q01DX009 (ip), vehicle: Klucel (hydroxypropylcellulose) (HPC) 93 % of control | [1] 100 % of control | [2] 102 % of control

CC1CCC(NC2=NCCO2)C(C)C1 (stereo unspecified)
inactive: [3] 91 % of control

C1CCC2C(C1)CCC1OC12 (stereo unspecified)
inactive: dose: 100.0 mg/kg/injection, schedule: Q01DX009 (ip), vehicle: saline 112 % of control | dose: 200.0 mg/kg/injection, schedule: Q01DX009 (ip), vehicle: saline 102 % of control | dose: 400.0 mg/kg/injection, schedule: Q01DX009 (ip), vehicle: saline 107 % of control

O=C(NC/C=C/Br)Nc1cnc2ccccc2c1
inactive: dose: 12.5 mg/kg/injection, schedule: Q01DX009 (ip), vehicle: saline with Tween-80 96 % of control | dose: 25.0 mg/kg/injection, schedule: Q01DX009 (ip), vehicle: saline with Tween-80 101 % of control | dose: 50.0 mg/kg/injection, schedule: Q01DX009 (ip), vehicle: saline with Tween-80 96 % of control | [3] 89 % of control

NC(=O)CN1C(=O)C2C3C=CC(C3)C2C1=O (stereo unspecified)
inactive: [3] 97 % of control | [4] 109 % of control | [5] 97 % of control

C[Se](=O)O.[Pb]
inactive: dose: 3.13 mg/kg/injection, schedule: Q01DX001 (ip), vehicle: saline with Tween-80 98 % of control | dose: 6.25 mg/kg/injection, schedule: Q01DX001 (ip), vehicle: saline with Tween-80 98 % of control | dose: 12.5 mg/kg/injection, schedule: Q01DX001 (ip), vehicle: saline with Tween-80 88 % of control

CCOC(=O)CC[P+](c1ccccc1)(c1ccccc1)c1ccccc1
inactive: dose: 75.0 mg/kg/injection, schedule: Q01DX001 (ip), vehicle: saline 103 % of control | dose: 75.0 mg/kg/injection, schedule: Q04DX003 (ip), vehicle: saline 106 % of control | dose: 150.0 mg/kg/injection, schedule: Q01DX001 (ip), vehicle: saline 109 % of control | dose: 150.0 mg/kg/injection, schedule: Q04DX003 (ip), vehicle: saline 105 % of control | dose: 300.0 mg/kg/injection, schedule: Q01DX001 (ip), vehicle: saline 101 % of control | dose: 300.0 mg/kg/injection, schedule: Q04DX003 (ip), vehicle: saline 107 % of control

CCOC1OC(C2COC(=O)O2)C(O)C1O (stereo unspecified)
inactive: [6] 100 % of control | [7] 100 % of control and 104 % of control | dose: 400.0 mg/kg/injection, schedule: Q04DX002 (ip), vehicle: saline 100 % of control | dose: 800.0 mg/kg/injection, schedule: Q04DX002 (ip), vehicle: saline 100 % of control

O=[N+]([O-])c1ccc(O)c(N=Cc2ccc(C=Nc3cc([N+](=O)[O-])ccc3O)cc2)c1
inactive: [1] 95 % of control and 86 % of control | [2] 97 % of control | [8] 103 % of control and 90 % of control

COc1ccc2c(c1C)CCC13CC(C)C(CC21)OC3=O (stereo unspecified)
inactive: [9] 102 % of control | [10] 101 % of control | [11] 109 % of control

CC1=NN=S(CC2=C(C(=O)O)N3C(=O)C(NC(=O)C[n+]4cc(=O)o[nH]4)C3SC2)S1 (stereo unspecified)
inactive: dose: 50.0 mg/kg/injection, schedule: Q04DX002 (ip), vehicle: saline 118 % of control | [6] 103 % of control | [7] 114 % of control

CCNc1nc(N)nc(Cl)c1N
inactive: [3] 107 % of control | [4] 100 % of control | [5] 105 % of control

CC1CCCC(C)N1NC(=O)NCCCl (stereo unspecified)
inactive: [1] 100 % of control | [12] 100 % of control | [2] 102 % of control | [13] 100 % of control | [8] 102 % of control | [14] 97 % of control

OC(c1ccccc1)c1nnc(C(O)c2ccccc2)nn1 (stereo unspecified)
inactive: [9] 92 % of control | [12] 94 % of control | [10] 95 % of control | [13] 93 % of control | [11] 95 % of control | [14] 100 % of control

C=C1C(=O)N(C)CCC1C(CC)C(=O)OC (stereo unspecified)
inactive: dose: 25.0 mg/kg/injection, schedule: Q01DX001 (ip), vehicle: saline 101 % of control | dose: 25.0 mg/kg/injection, schedule: Q04DX003 (ip), vehicle: saline 95 % of control | dose: 25.0 mg/kg/injection, schedule: Q04DX003 (oral), vehicle: saline 107 % of control | [15] 88 % of control | dose: 50.0 mg/kg/injection, schedule: Q04DX003 (ip), vehicle: saline 93 % of control | dose: 50.0 mg/kg/injection, schedule: Q04DX003 (oral), vehicle: saline 109 % of control | [16] 98 % of control | dose: 100.0 mg/kg/injection, schedule: Q04DX003 (ip), vehicle: saline 93 % of control | dose: 100.0 mg/kg/injection, schedule: Q04DX003 (oral), vehicle: saline 98 % of control | [17] 93 % of control | dose: 200.0 mg/kg/injection, schedule: Q04DX003 (ip), vehicle: saline 95 % of control | dose: 200.0 mg/kg/injection, schedule: Q04DX003 (oral), vehicle: saline 94 % of control

Cn1c(=O)c2[nH]c(C3CC4C5CCC(C5)C4C3)nc2n(C)c1=O (stereo unspecified)
inactive: [15] 100 % of control | [16] 108 % of control | [17] 100 % of control | dose: 400.0 mg/kg/injection, schedule: Q01DX001 (ip), vehicle: saline 96 % of control

CC(=O)OC(C)C(=O)C1=C2CCCN2CCc2cc3c(cc21)OCO3 (stereo unspecified)
inactive: dose: 100.0 mg/kg/injection, schedule: Q04DX002 (ip), vehicle: Klucel (hydroxypropylcellulose) (HPC) 103 % of control | dose: 200.0 mg/kg/injection, schedule: Q04DX002 (ip), vehicle: Klucel (hydroxypropylcellulose) (HPC) 103 % of control | dose: 400.0 mg/kg/injection, schedule: Q04DX002 (ip), vehicle: Klucel (hydroxypropylcellulose) (HPC) 103 % of control

CCCNC(C)CC(=O)OCC (stereo unspecified)
inactive: dose: 100.0 mg/kg/injection, schedule: Q01DX Z (ip), vehicle: methylcellulose (MC) 96 % of control | dose: 200.0 mg/kg/injection, schedule: Q01DX Z (ip), vehicle: methylcellulose (MC) 94 % of control
